Key:
[1] = tested on: islet cell autoantibody levels; assay: Autoantibody titer in NOD mice (ELISA); format: in vivo, mouse; details: sublingual 87 μg once per day up to 30 weeks of age, compared to untreated controls
Text: Autoantibody titer assay. Commercially available ELISA assays are employed for detecting the presence of anti-insulin antibodies in serum samples collected from subjects.
(§1) Five-week old female NOD mice are randomly assigned to three groups as described in Example 1: (1) control group (oil only); (2) insulin-related peptide treatment (Humulin®) started at six weeks of age; or (3) insulin-related peptide treatment (Humulin®) started at ten weeks of age. Mice in the treatment groups (2) and (3) are sublingually administered 87 μg of humulin once per day up to 30 weeks of age. The subjects are assessed for baseline levels of autoantibodies at week 6. Thereafter, autoantibody titer measurements are taken once every other week beginning at week 15 up to 30 weeks of age.

[2] = tested on: non-obese diabetic (NOD) mice; assay: Onset of hyperglycemia / Type 1 diabetes in NOD mice with sublingual treatment; format: in vivo, mouse; details: for Median Survival (time to Type 1 diabetes onset): female NOD mice, sublingual 87 μg once per day, diabetic = three consecutive blood glucose readings above 300 mg/dL, control 21 weeks; for Gehan-Breslow-Wilcoxon test: Are the survival curves significantly different? / Log-rank (Mantel-Cox) test: Are the survival curves significantly different?: vs control
Procedure: Sublingual formulation. A commercial high dose Humulin® solution (Humulin® R U-500) containing 500 units of insulin per mL is mixed with an additional equal volume (1:1 (vol:vol)) 100% glycerin. Each dose contains 10 μL of the Humulin®-glycerin solution, which contains 2.5 units (approximately 87 micrograms) of insulin in a solution having a final concentration of 52 vol. % glycerin.
NOD mice. Non-obese diabetic (NOD) mice, as described by Makino (Adv. Immunol. 51:285-322 (1992)), are used in the studies described herein. NOD mice provide an animal model for the spontaneous development of Type 1 diabetes. NOD mice develop insulitis as a result of leukocyte infiltration into the pancreatic islet, which in turn leads to the destruction of pancreatic islets and a Type 1 diabetic phenotype.
Five-week old female NOD mice were randomly assigned to three groups: (1) control group (1:1 glycerin/phosphate buffered saline (PBS)); (2) insulin-related peptide treatment (Humulin®) started at six weeks of age; or (3) insulin-related peptide treatment (Humulin®) started at ten weeks of age. Mice in the treatment groups (2) and (3) were sublingually administered 87 μg of Humulin® (10 μL of solution) once per day up to 30 weeks of age. Blood glucose measurements were taken once per week up to 20 weeks of age, and then twice per week thereafter. Mice were classified as diabetic after three consecutive blood glucose readings above 300 mg/dL (hyperglycemic).

serum C-peptide = assay: Serum C-peptide levels in NOD mice (mouse C-peptide ELISA); format: in vivo; details: sublingual 87 μg once per day up to 30 weeks of age, compared to untreated control NOD mice
Procedure: Serum C-peptide assay. The mouse C-peptide ELISA (ALPCO), which quantifies C-peptide protein products of mouse I and mouse II proinsulin genes, is used. Briefly, serum is collected by inserting a needle into the submandibular vein and collecting ˜0.2 mL of blood. The blood is centrifuged for 30 minutes at 17,000 rpm in a refrigerated centrifuge, and serum is collected and stored −80° C.
as §1, with “Humulin®” for “humulin”, “Baseline C-peptide measurements” for “The subjects”, “taken from serum drawn” for “assessed for baseline levels of autoantibodies”, “C-peptide” for “autoantibody titer”, “from serum drawn 1 time per 2 weeks” for “once every other week”, “20” for “15”

[3] = FIG. 1A, treatment group 2, sublingual, started at six weeks of age, compared to control group
[4] = FIG. 1A, treatment started at 6 weeks of age
[5] = FIG. 1B, treatment started at 10 weeks of age

Humulin: commercial recombinant human insulin solution (Humulin R U-500, 500 units/mL) mixed 1:1 with 100% glycerin for sublingual dosing
antigenic response (e.g., islet cell autoantibody levels) [1]: attenuated antigenic response | Median Survival (time to Type 1 diabetes onset) ([2]; FIG. 1A, started at 6 weeks of age up to 30 weeks): 27 weeks | incidence (% T1D Onset) of Type 1 diabetes [2, 3]: significantly reduced | onset time (weeks) of Type 1 diabetes [2, 3]: significantly reduced | Ratio of median survival (control vs Humulin) [2, 4]: 0.778 | Reciprocal of ratio of median survival [2, 4]: 1.29 | Gehan-Breslow-Wilcoxon test: Are the survival curves significantly different? [2, 4]: Yes | Log-rank (Mantel-Cox) test: Are the survival curves significantly different? [2, 4]: Yes | Median Survival (time to Type 1 diabetes onset) ([2]; FIG. 1B, started at 10 weeks of age up to 30 weeks): 24 weeks | Ratio of median survival (control vs Humulin) [2, 5]: 0.8750 | Reciprocal of ratio of median survival [2, 5]: 1.14 | Gehan-Breslow-Wilcoxon test: Are the survival curves significantly different? [2, 5]: No | Log-rank (Mantel-Cox) test: Are the survival curves significantly different? [2, 5]: No | serum C-peptide levels (serum C-peptide): maintenance or enhanced serum C-peptide levels

Reference: patent US12551537B2, “Methods and compositions for the treatment and prevention of type 1 diabetes” (Dr. Mary Morris & Associates, LLC, priority 2019, dated 2026)
